Test results taken from the supplement of paper PMC10307832.

How the values were obtained:
Experiment in all cases: relative viability (nuclei count vs DMSO), 5 days (fraction); higher = more cells survive
[1] = system: BEN
Summary of the method: (§1)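 Relative viability equals treated-well nuclei counts divided by vehicle-well nuclei counts. Counts came from 4× images of lung cancer cell lines grown in 1536-well plates for 5 days after pin-tool dosing on the day after seeding. Dosing used one drug alone or a fixed anchor-drug dose plus five library-drug doses (not always all listed) in √10 steps, and values are medians of duplicate plates.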

[2] = system: ChaGo-K-1
Summary of the method: as §1

[3] = system: HCC-15
Summary of the method: as §1

[4] = system: HCC-78
Summary of the method: as §1

[5] = system: LC-2-ad
Summary of the method: as §1

[6] = system: LCLC-97TM1
Summary of the method: as §1

[7] = system: LK-2
Summary of the method: as §1

[8] = system: LU99A
Summary of the method: as §1

[9] = system: LXF-289
Summary of the method: as §1

[10] = system: NCI-H1651
Summary of the method: as §1

[11] = system: NCI-H1666
Summary of the method: as §1

[12] = system: NCI-H1944
Summary of the method: as §1

[13] = system: NCI-H2087
Summary of the method: as §1

[14] = system: NCI-H322M
Summary of the method: as §1

[15] = system: NCI-H358
Summary of the method: as §1

[16] = system: NCI-H596
Summary of the method: as §1

[17] = system: NCI-H650
Summary of the method: as §1

[18] = system: NCI-H661
Summary of the method: as §1

[19] = system: NCI-H838
Summary of the method: as §1

[20] = system: PC-3 [JPC-3]
Summary of the method: as §1

[21] = system: SK-MES-1
Summary of the method: as §1

[22] = system: UMC-11
Summary of the method: as §1

## NC(=O)Nc1cc(-c2cccc(F)c2)sc1C(=O)N[C@H]1CCCNC1 [AZD7762] + C[C@@H](Oc1cc(-c2cnn(C3CCNCC3)c2)cnc1N)c1c(Cl)ccc(F)c1Cl [Crizotinib] (partner 1 µM)
[1]; first compound 0.01 µM
  relative viability: 0.911
[1]; first compound 0.03162 µM
  relative viability: 0.924
[1]; first compound 0.1 µM
  relative viability: 0.827
[1]; first compound 0.3162 µM
  relative viability: 0.859
[1]; first compound 1 µM
  relative viability: 0.616
[2]; first compound 0.01 µM
  relative viability: 1.21
[2]; first compound 0.03162 µM
  relative viability: 1.04
[2]; first compound 0.1 µM
  relative viability: 1.14
[2]; first compound 0.3162 µM
  relative viability: 1.07
[2]; first compound 1 µM
  relative viability: 0.64
[3]; first compound 0.01 µM
  relative viability: 0.948
[3]; first compound 0.03162 µM
  relative viability: 0.776
[3]; first compound 0.1 µM
  relative viability: 0.818
[3]; first compound 0.3162 µM
  relative viability: 0.774
[3]; first compound 1 µM
  relative viability: 0.825
[4]; first compound 0.01 µM
  relative viability: 0.364
[4]; first compound 0.03162 µM
  relative viability: 0.35
[4]; first compound 0.1 µM
  relative viability: 0.317
[4]; first compound 0.3162 µM
  relative viability: 0.326
[4]; first compound 1 µM
  relative viability: 0.255
[5]; first compound 0.01 µM
  relative viability: 0.551
[5]; first compound 0.03162 µM
  relative viability: 0.483
[5]; first compound 0.1 µM
  relative viability: 0.52
[5]; first compound 0.3162 µM
  relative viability: 0.522
[5]; first compound 1 µM
  relative viability: 0.295
[6]; first compound 0.01 µM
  relative viability: 0.385
[6]; first compound 0.03162 µM
  relative viability: 0.337
[6]; first compound 0.1 µM
  relative viability: 0.317
[6]; first compound 0.3162 µM
  relative viability: 0.448
[6]; first compound 1 µM
  relative viability: 0.334
[7]; first compound 0.01 µM
  relative viability: 0.203
[7]; first compound 0.03162 µM
  relative viability: 0.221
[7]; first compound 0.1 µM
  relative viability: 0.225
[7]; first compound 0.3162 µM
  relative viability: 0.203
[7]; first compound 1 µM
  relative viability: 0.228
[8]; first compound 0.01 µM
  relative viability: 0.725
[8]; first compound 0.03162 µM
  relative viability: 0.67
[8]; first compound 0.1 µM
  relative viability: 0.602
[8]; first compound 0.3162 µM
  relative viability: 0.587
[8]; first compound 1 µM
  relative viability: 0.228
[9]; first compound 0.01 µM
  relative viability: 0.788
[9]; first compound 0.03162 µM
  relative viability: 0.8
[9]; first compound 0.1 µM
  relative viability: 0.828
[9]; first compound 0.3162 µM
  relative viability: 0.864
[9]; first compound 1 µM
  relative viability: 0.816
[10]; first compound 0.01 µM
  relative viability: 1
[10]; first compound 0.03162 µM
  relative viability: 0.87
[10]; first compound 0.1 µM
  relative viability: 0.894
[10]; first compound 0.3162 µM
  relative viability: 0.862
[10]; first compound 1 µM
  relative viability: 0.714
[11]; first compound 0.01 µM
  relative viability: 1.58
[11]; first compound 0.03162 µM
  relative viability: 1.16
[11]; first compound 0.1 µM
  relative viability: 1.23
[11]; first compound 0.3162 µM
  relative viability: 0.993
[11]; first compound 1 µM
  relative viability: 0.695
[12]; first compound 0.01 µM
  relative viability: 1.29
[12]; first compound 0.03162 µM
  relative viability: 1.22
[12]; first compound 0.1 µM
  relative viability: 1.2
[12]; first compound 0.3162 µM
  relative viability: 1.19
[12]; first compound 1 µM
  relative viability: 0.918
[13]; first compound 0.01 µM
  relative viability: 0.906
[13]; first compound 0.03162 µM
  relative viability: 0.879
[13]; first compound 0.1 µM
  relative viability: 1.02
[13]; first compound 0.3162 µM
  relative viability: 0.825
[13]; first compound 1 µM
  relative viability: 0.846
[14]; first compound 0.01 µM
  relative viability: 1.04
[14]; first compound 0.03162 µM
  relative viability: 0.845
[14]; first compound 0.1 µM
  relative viability: 0.883
[14]; first compound 0.3162 µM
  relative viability: 0.962
[14]; first compound 1 µM
  relative viability: 0.417
[15]; first compound 0.01 µM
  relative viability: 0.743
[15]; first compound 0.03162 µM
  relative viability: 0.695
[15]; first compound 0.1 µM
  relative viability: 0.581
[15]; first compound 0.3162 µM
  relative viability: 0.521
[15]; first compound 1 µM
  relative viability: 0.202
[16]; first compound 0.01 µM
  relative viability: 0.991
[16]; first compound 0.03162 µM
  relative viability: 0.942
[16]; first compound 0.1 µM
  relative viability: 1.02
[16]; first compound 0.3162 µM
  relative viability: 1.11
[16]; first compound 1 µM
  relative viability: 0.863
[17]; first compound 0.01 µM
  relative viability: 0.882
[17]; first compound 0.03162 µM
  relative viability: 0.594
[17]; first compound 0.1 µM
  relative viability: 0.714
[17]; first compound 0.3162 µM
  relative viability: 0.688
[17]; first compound 1 µM
  relative viability: 0.466
[18]; first compound 0.01 µM
  relative viability: 0.952
[18]; first compound 0.03162 µM
  relative viability: 0.87
[18]; first compound 0.1 µM
  relative viability: 1.08
[18]; first compound 0.3162 µM
  relative viability: 0.99
[18]; first compound 1 µM
  relative viability: 0.886
[19]; first compound 0.01 µM
  relative viability: 0.809
[19]; first compound 0.03162 µM
  relative viability: 0.781
[19]; first compound 0.1 µM
  relative viability: 0.762
[19]; first compound 0.3162 µM
  relative viability: 0.687
[19]; first compound 1 µM
  relative viability: 0.301
[20]; first compound 0.01 µM
  relative viability: 0.999
[20]; first compound 0.03162 µM
  relative viability: 0.962
[20]; first compound 0.1 µM
  relative viability: 1.01
[20]; first compound 0.3162 µM
  relative viability: 1.02
[20]; first compound 1 µM
  relative viability: 0.903
[21]; first compound 0.01 µM
  relative viability: 1.05
[21]; first compound 0.03162 µM
  relative viability: 0.966
[21]; first compound 0.1 µM
  relative viability: 1.08
[21]; first compound 0.3162 µM
  relative viability: 0.999
[21]; first compound 1 µM
  relative viability: 0.614
[22]; first compound 0.01 µM
  relative viability: 0.713
[22]; first compound 0.03162 µM
  relative viability: 0.421
[22]; first compound 0.1 µM
  relative viability: 0.516
[22]; first compound 0.3162 µM
  relative viability: 0.508
[22]; first compound 1 µM
  relative viability: 0.142
